“Also recorded” adds a separate entry of the source.

The values that follow come from patent US20150174202A1, “Methods and Compositions for Modulating Beta Cell Proliferation” (The Board of Trustees of the Leland Stanford Junior …, priority 2011, published 2015).

The target in one experiment is T1, Pdgfr-α (Mus musculus, UniProt P26618).
T1 construct: endogenous in cells; host or cells: primary pancreatic islets from C57BL/6 mice (3-week-old wild-type islets), cultured ex vivo
Description: Phosphorylation of Pdgfr-α in cultured mouse islets (western blot). In kind it is cell-based. The note with it: 3-week-old mouse islets exposed to PDGF-AA. As for the experimental part:
Mouse pancreatic islets were purified as described in Chen et al. (2009) Genes Dev. 23, 975-985 and used immediately for assays described in the text. To study Ezh2 induction in cultured islets exposed to mitogens, freshly isolated islets from 2-3-week old, and 7-12-month old C57BL/6 mice were recovered and equilibrated overnight at 37° C., 5% CO2 in RPMI-1640 medium supplemented with 0.5% fetal bovine serum (FBS), 0.2% bovine albumin (BSA) and 2% penicillin/streptomycin. Afterwards, islets were distributed into microplates or dishes, and treated with recombinant human PDGF-AA, prolactin or insulin (Sigma), with or without addition of pharmacological inhibitors, including Sunitinib (Selleck), Vargatef (Selleck), U0126 (Sigma), LY294002 (Sigma) or U-73122 (Sigma) at the indicated concentrations. Two days later, islets were harvested for RNA or protein extraction for real-time RTPCR or western blot analyses. To detect phosphorylation of Pdgfr-α by western blot, islets were exposed to PDGF-AA (with or without indicated pharmacological inhibitors) for 90 min before islet harvesting and protein extraction. […] Immunostaining of BrdU and insulin was performed on processed islets, and β-cell proliferation rate was determined by quantifying percentage of insulin+ cells with BrdU+. […]
A general note: Immunoblotting shows a protein as a band on a membrane.

A further experiment concerns Ezh2. Put plainly: Ezh2/Ezh1 expression in cultured mouse islets (real-time RT-PCR, western blot). Type of experiment: cell-based. How it is done:
Mouse pancreatic islets were purified as described in Chen et al. (2009) Genes Dev. 23, 975-985 and used immediately for assays described in the text. To study Ezh2 induction in cultured islets exposed to mitogens, freshly isolated islets from 2-3-week old, and 7-12-month old C57BL/6 mice were recovered and equilibrated overnight at 37° C., 5% CO2 in RPMI-1640 medium supplemented with 0.5% fetal bovine serum (FBS), 0.2% bovine albumin (BSA) and 2% penicillin/streptomycin. Afterwards, islets were distributed into microplates or dishes, and treated with recombinant human PDGF-AA, prolactin or insulin (Sigma), with or without addition of pharmacological inhibitors, including Sunitinib (Selleck), […]0126 (Sigma), LY294002 (Sigma) or U-73122 (Sigma) at the indicated concentrations. Two days later, islets were harvested for RNA or protein extraction for real-time RTPCR or western blot analyses. To detect phosphorylation of Pdgfr-α by western blot, islets were exposed to PDGF-AA (with or without indicated pharmacological inhibitors) for 90 min before islet harvesting and protein extraction. To detect in vitro islet β-cell proliferation stimulated by PDGF-AA, a final concentration of 50 μM BrdU was introduced into each culture dish 24 h before harvest, followed by standard histological processing. Immunostaining of BrdU and insulin was performed on processed islets, and β-cell proliferation rate was determined by quantifying percentage of insulin+ cells with BrdU+. Culture experiments of human islets were performed using a similar procedure described later. Total RNA from freshly isolated or cultured islets after indicated treatments were purified using the Absolutely RNA miniprep purification kit (Stratagene) according to the manufacturer's instructions. RNA concentration was measured with a RiboGreen RNA quantification assay (Invitrogen). One-step quantitative RT-PCR was performed and analysed using an ABI Prism 7300 detection system (Applied Biosystems) with TaqMan one-step RTPCR Master Mix Reagents and appropriate amounts (10-100 ng) of islet total RNA as the template. We calculated the ratio of mRNA for the gene of interest to the amount of internal control mRNA of peptidylprolyl isomerase A (cyclophilin A, PPIA), and then normalized the ratio for each gene to its median. For western blots, total islet protein was prepared from freshly isolated or cultured islets after indicated treatments as described in Chen et al. (2009) Genes Dev. 23, 975-985. Equal amounts of protein were resolved on SDS-PAGE and transferred to polyvinylidine fluoride membranes (Amersham Pharmacia) for immunoblotting with specific antibodies, including rabbit polyclonal anti-human Ezh2 (1:1,000, Millipore), rabbit polyclonal anti-phospho-PDGFR-α ([…]) (1:1,000, Santa Cruz Biotechnologies), rabbit monoclonal anti-PDGFR-α (1:1,000, Cell Signaling), mouse monoclonal anti-β-actin (1:4,000, Sigma), rabbit monoclonal anti-Akt (1:1,500, Cell Signaling), rabbit monoclonal anti-phospho-Ark ([…]) (1:1,000, Cell Signaling), rabbit monoclonal anti-p44/42 MAPK (Erk1/2) (1:1,500, Cell Signaling), rabbit monoclonal anti-phospho-p44/42 MAPK (Erk1/2) […]) (1:1,000, Cell Signaling), rabbit monoclonal anti-PLCγ1 (1:1,000, Cell Signaling) and rabbit monoclonal anti-phospho-PLCγ1 ([…]) (1:1,000, Cell Signaling). Signal was visualized using ECL detection (Amersham Pharmacia) on Kodak film after further incubation with HRP-conjugated secondary antibodies. For phospho-PDGFR-α ([…]) and PDGFR-α detection, signal was amplified by incubating the membrane with biotinylated anti-rabbit-IgG (1:2,000), followed with an incubation with HRP-avidin (1:2,000, Vector Laboratories) and then ECL visualization.

T1 sequence (P26618 25-1089): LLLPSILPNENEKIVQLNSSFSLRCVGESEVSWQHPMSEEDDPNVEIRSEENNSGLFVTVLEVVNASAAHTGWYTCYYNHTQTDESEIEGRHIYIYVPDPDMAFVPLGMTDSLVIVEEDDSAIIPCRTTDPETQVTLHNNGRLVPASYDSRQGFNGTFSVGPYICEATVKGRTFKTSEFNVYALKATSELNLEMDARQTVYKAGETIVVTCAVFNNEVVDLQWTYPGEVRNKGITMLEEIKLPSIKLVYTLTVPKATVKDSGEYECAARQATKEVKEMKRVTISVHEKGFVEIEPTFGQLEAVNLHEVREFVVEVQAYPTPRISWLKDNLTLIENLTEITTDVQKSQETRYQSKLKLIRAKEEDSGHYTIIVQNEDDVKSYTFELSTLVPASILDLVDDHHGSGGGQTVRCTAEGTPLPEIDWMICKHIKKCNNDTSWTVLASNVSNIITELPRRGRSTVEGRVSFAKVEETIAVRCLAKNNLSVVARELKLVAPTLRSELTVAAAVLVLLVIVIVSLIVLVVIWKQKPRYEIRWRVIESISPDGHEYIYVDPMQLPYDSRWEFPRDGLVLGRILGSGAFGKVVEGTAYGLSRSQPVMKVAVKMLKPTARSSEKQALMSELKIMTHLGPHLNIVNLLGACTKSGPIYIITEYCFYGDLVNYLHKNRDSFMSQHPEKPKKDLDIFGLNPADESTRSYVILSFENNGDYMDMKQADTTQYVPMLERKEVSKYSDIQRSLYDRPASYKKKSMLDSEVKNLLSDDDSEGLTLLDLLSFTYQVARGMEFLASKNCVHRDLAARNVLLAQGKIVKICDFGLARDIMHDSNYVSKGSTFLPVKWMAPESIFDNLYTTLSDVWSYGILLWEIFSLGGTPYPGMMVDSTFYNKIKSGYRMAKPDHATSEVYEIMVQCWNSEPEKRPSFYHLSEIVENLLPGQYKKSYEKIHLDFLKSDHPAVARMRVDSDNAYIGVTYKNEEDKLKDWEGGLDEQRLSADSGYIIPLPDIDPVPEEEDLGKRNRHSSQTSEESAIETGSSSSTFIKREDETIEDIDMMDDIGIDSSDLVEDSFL

“PDGF-AA: recombinant human PDGF-AA, a homodimer of PDGF alpha polypeptides”: the phospho-Pdgfr-α levels entry in the experiment with Pdgfr-α is listed as “increased”. Besides, the “Ezh2 mRNA and protein levels” value was “increased; also recorded: induces” in the experiment on Ezh2 (3-week-old (juvenile) mouse islets, 2 days exposure) and “not significantly increased” in the experiment on Ezh2 (7- or 9-month-old adult mouse islets exposed to PDGF-AA). The Ezh1 expression entry with Ezh2 (3-week-old mouse islets, 2 days exposure) is listed as “but not Ezh1 expression”.
